According to patent US20190316081A1, “MEDIA AND METHODS FOR EXPANSION OF PLURIPOTENT STEM CELLS” (priority 2018, published 2019):
One block for each compound: values may come before it.

Experiments:
Format in all cases: cell-based, human
[1] = tested on: PSC (HES2); assay: Orbital shaker suspension culture of PSC aggregates with dextran sulfate; conditions: for aggregate control properties in PSC: data not shown
Protocol: In brief, HES2 were cultured on Geltrex™ LDEV-Free Reduced Growth Factor Basement Membrane Matrix (Thermo Fisher Scientific, 1:50 dilution in DMEM) coated plates in Nutristem® hESC XF Culture Medium (Biological Industries, “NS”) or E8 Medium (Thermo Fisher Scientific), supplemented with 1× Penicillin-Streptomycin (Thermo Fisher Scientific). Plates were coated with Geltrex™ for 30 minutes at 37° C. Cells were passaged 1:24 every 6 days by dissociation with TrypLE™ Express (Thermo Fisher Scientific) at 37° C. for 4-5 minutes. All cell line stocks were confirmed negative for mycoplasma contamination. Conversion to a “naïve” hPSC state was performed as described previously^35. Dextran sulfate compounds (DS, Sigma) were prepared by dilution in deionized water at a stock concentration of 100 mg/mL followed by filter sterilization.
(§1) Six well culture plates were pre-coated with 5% Pluronic F-68® (Thermo Fisher Scientific) for 30 minutes at 37° C. or overnight at 4° C. Dissociation of PSC to single cells was carried out by TrypLE™ Express (Thermo Fisher Scientific) treatment for 5 minutes at room temperature. Single cells were seeded into the Pluronic F-68® coated 6-well plates that were then placed on an orbital shaker with 10 μM Y-27632 (Reagents Direct) in normoxic (21% 02) conditions. Cells were seeded at densities of 2×10^5 cells/mL unless otherwise noted. Medium was exchanged by angling the plate at a 45° angle and allowing aggregates to settle onto the bottom edge. Two days after seeding, half of the growth medium was removed and replaced each day. Cells were harvested at the end of culture by dissociation with a 5 minute TrypLE™ treatment at 37° C. and cell counts were performed by Trypan Blue exclusion (Thermo Fisher Scientific). Bioreactor experiments were conducted following manufacturer instructions for operating the Ambr™-24 bioreactor system (Sartorius). Cell dissociation and medium exchange were performed as described above. Bioreactors were operated at 450 rpm and seeded with 4×10^5 cells/mL unless otherwise noted. Aggregates were analyzed using the Mastersizer™ 3000 particle analyzer (Malvern) according to manufacturer's instructions. Unless otherwise noted, the 560 μm aperture was used for analysis. Aggregates were dissociated and seeded into adherent conditions after 3 passages in suspension with DS. Directed differentiation into all three germ layers was performed as described previously for endoderm^40, mesoderm^41, and ectoderm^42 lineages. G-Band karyotyping was performed by WiCell.
Statistical analysis was performed in Excel software (Microsoft®). […] Coefficient of variation was calculated by estimating the volume of each aggregate from its diameter, calculating the standard deviation of each treatment, and normalizing to the mean. […]

[2] = tested on: 5i-hPSC; assay: Medium component screen and PD dose response on OCT4/SOX2 pluripotent phenotype, feeder-free adherent and suspension
Protocol: For intracellular staining, dissociated cells were fixed with 4% paraformadehyde (Electron Microscopy Sciences) for 10 minutes and permeabilized with 0.1% Triton™ X-100 (Sigma-Aldrich). Cells were then stained with the primary antibody (OCT4, BD Biosciences; SOX2, R&D; FOXA2, Abnova; cTNT, Thermo Fisher Scientific; TUBB3, Cell Signaling; PDX1, R&D; NKX6.1, DSHB) for 25 minutes followed by the secondary antibody for 25 minutes at 4° C. Stained cells were analyzed on a FACSCanto™ II (BD) or FACS Fortessa™ (BD) flow cytometer.
Statistical analysis was performed using the JMP software (SAS). Parametric tests were used for qpcr, doubling time, and maximum density experiments, with the Student's T-test used for 2 treatment experiments and Tukey's HSD test used for experiments with 3 or more treatments. A non-parametric test (Kruskal-Wallis) was used for colony formation experiments since this assay was developed specifically for this study. […] The linear regression model was developed in Excel (Microsoft®).
To test this hypothesis, a 96 well plate platform was designed to screen the effects of medium components on 5i-hPSC pluripotency in suspension cultures and in feeder-free adherent cultures (FIG. 8A). To examine the effects of adherent culture on pluripotency, a Geltrex™ coating was used to obtain an adherent culture condition in the absence of a feeder layer. […]

[3] = tested on: PSC (HES2); assay: Stirred tank bioreactor suspension culture of PSC with dextran sulfate; conditions: stirred tank bioreactors seeded with DS, 3 passages
Protocol: as §1, with “Bioreactors were operated at 450 rpm and seeded with 4×10^5 cells/mL unless otherwise noted.” left out, “Unless otherwise noted, the 560 μm aperture was used for analysis. Aggregates were dissociated and seeded into adherent conditions after 3 passages in suspension with DS. Directed differentiation into all three germ layers was performed as described previously for endoderm^40, mesoderm^41, and ectoderm^42 lineages. G-Band karyotyping was performed by WiCell.” left out
Apoptosis analysis was conducted using Annexin V staining. […] Cells were analyzed on a FACS Canto™ II (BD) or FACS Fortessa™ (BD) flow cytometer. […]

[4] = tested on: PSC; assay: Karyotype and germ layer differentiation of DS treated PSC
Protocol: Six well culture plates were pre-coated with 5% Pluronic F-68® (Thermo Fisher Scientific) for 30 minutes at 37° C. or overnight at 4° C. Dissociation of PSC to single cells was carried out by TrypLE™ Express (Thermo Fisher Scientific) treatment for 5 minutes at room temperature. […] Cells were seeded at densities of 2×10^5 cells/mL unless otherwise noted. Medium was exchanged by angling the plate at a 45° angle and allowing aggregates to settle onto the bottom edge. Two days after seeding, half of the growth medium was removed and replaced each day. Cells were harvested at the end of culture by dissociation with a 5 minute TrypLE™ treatment at 37° C. and cell counts were performed by Trypan Blue exclusion (Thermo Fisher Scientific). […] Aggregates were dissociated and seeded into adherent conditions after 3 passages in suspension with DS. Directed differentiation into all three germ layers was performed as described previously for endoderm^40, mesoderm^41, and ectoderm^42 lineages. G-Band karyotyping was performed by WiCell.

[5] = tested on: H9 hPSC; assay: Aggregation control by DS in conventional and naive conditions; conditions: conventional and naive pluripotent states
[6] = tested on: HES2 and H9 cell lines; assay: 4i suspension culture supplemented with dextran sulfate; conditions: dextran sulfate at seeding
Protocol: HES2 and H9 hPSC were cultured in adherent conditions in 5i medium for >5 passages. Cells were dissociated with TrypLE™ as described previously and seeded as single cells into 4i medium in the presence of ROCK inhibitor into orbital shaker suspension culture plates (pre-treated with 5% Pluronic® F-68) in the presence of dextran sulfate at seeding. Half of the medium volume was exchanged every day starting on the second day by tilting the plate at a 45 degree angle and allowing cells to settle before removing half of the medium and replenishing it with fresh 4i medium without dextran sulfate.

Compound: heparin
aggregate control properties in PSC [1]: displayed aggregate control properties

Compound: O=C(NOC[C@H](O)CO)c1ccc(F)c(F)c1Nc1ccc(I)cc1F [PD, N-[(2R)-2,3-dihydroxypropoxy]-3,4-difluoro-2-[(2-fluoro-4-iodophenyl)amino]-benzamide]
correlation of PD level to pluripotent phenotype ([2]; feeder-free adherent and suspension): negatively correlated | linear regression coefficient of PD level on OCT4/SOX2 expression ([2]; model with growth format and interaction, 56 observations): −27.0584

karyotype ([4]; 9 passages (5 adherent, 4 suspension)): retained a normal karyotype
Compound: dextran sulfate [DS]
homogeneity of aggregate sizes ([1]; orbital shaker, 4 days): reduced standard deviations and lower coefficients of variation of aggregate volume | aggregate diameter ([1]; orbital shaker, DS of 4, 15 and 40 kDa at varied concentration): significantly reduced diameters in a dose-dependent fashion | expression of pluripotency markers Oct4 and Sox2 [3]: > 85% | differentiation to three germ layers ([4]; after 9 passages with DS): maintained the ability to differentiate to cell types from all three germ layers | control of aggregation [5]: able to control H9 hPSC aggregation in both pluripotent states | mean aggregate size and variance relative to untreated conditions [6]: both observed to decrease

Compound: pentosan polysulfate
aggregate control properties in PSC [1]: displayed aggregate control properties
